# Data from article PMC10283044, “Structure–Activity Relationship of Lower Chlorinated Biphenyls and Their Human-Relevant Metabolites for Astrocyte Toxicity” (Chemical Research in Toxicology, 2023).
# Counter-ions that a name gives are not always drawn. Like-named read-outs stand apart in the source and are kept apart here.
# Tests used:
# C6 cells = assay: MTT cell viability assay in C6 cells; assay type: cell-based; details: 0.5 to 50 μM; for IC50: Rattus norvegicus, C6 cell line, 24 h exposure; for toxicity (cell viability) in the tested concentration range: C6 cells, 24 h
# Experimental: C6 cells (CCL-107, Lot No. 63821786) were purchased from the American Type Culture Collection (ATCC, Manassas, VA, U.S.A.). This cell line has been previously used as an in vitro astrocyte model for toxicity[22] and is morphologically and functionally similar to primary astrocyte cultures.[34] The C6 cells were grown and maintained at 37 °C under humidified conditions at 5% CO2 in DMEM/F12 medium supplemented with 10% FBS and 1% P/S. The cells were maintained at a seeding density of 1 × 10^6 cells in 100 mm tissue culture-treated dishes (Cat. No. 430167, Corning, Somerville, MA, U.S.A.). All the experiments for the current study utilizing C6 cells have been performed within passage 2 and passage 20.
# (§1) All the LC-PCB exposures or their corresponding human-relevant metabolite exposures were performed in serum-free, phenol-red-free cell culture media suited for the respective cell type described above. The exposures were within a concentration range of 0.5–50 μM for 24 h at 37 °C under humidified conditions at 5% CO2. DMSO was used as a negative control. All stock solutions of the test compounds were prepared in DMSO. The final DMSO concentration was maintained at <0.5% for all the exposures. After the 24 h incubation, either an MTT assay for cell viability or an LDH assay for cytotoxicity was employed.
# (§2) C6 or primary cells were seeded in 24-well cell culture plates (Corning Inc., Corning, NY, U.S.A; Cat No. 3526) and allowed to grow until 80–90% confluent. The cells were then exposed to test compounds, as described above (0, 0.5, 1, 5, 10, 20, and 50 μM). The MTT assay was performed, as described[38] with modifications. After 24 h of exposure, the media was removed, and cells were washed with HBSS once. Two hundred microliters of 0.5 mg/mL MTT solution prepared in HBSS/Glucose (Glucose used at 1 mg/mL HBSS) was added to each well of the 24-well plate. The cells were incubated with the MTT solution for 45 min to 1 h at 37 °C under humidified conditions at 5% CO2. After incubation, the MTT solution was removed, and the water-insoluble purple formazan product was dissolved in 400 μL DMSO. This DMSO solution was added to a clear, flat bottom 96-well polystyrene plate (Cat. No. 12-565-501, Thermo Fisher Scientific, Waltham, MA. U.S.A.) in duplicate and read at 570 and 650 nm using a microplate reader (SpectraMax 190, Molecular Devices, San Jose, CA. U.S.A.). The mean percent cell viability was calculated as follows: [drawing 1]
# [1] = system: mouse primary mixed glial cells; assay: MTT cell viability assay in mouse primary glial cells; assay type: cell-based, C57BL/6 mouse; details: Glial cell; mouse primary mixed glial cells (about 80% astrocytes, 20% microglia), MTT assay, 24 h
# Experimental: (§3) Primary glial cell cultures obtained from PND1-3 C57BL/6 mice pups were provided by Dr. Tjalkens at Colorado State University, Fort Collins, CO, U.S.A. The primary astroglial cell cultures were grown and maintained, as described previously in MEM medium supplemented with 10% FBS and 1% P/S.[37]
# as §1, §2
# rat primary astrocytes = assay: MTT cell viability assay in rat primary astrocytes; assay type: cell-based, Sprague-Dawley rat; details: 24 h
# Text: Sprague-Dawley male and female rats were utilized to obtain cultures of sex-specific primary cortical cells. All animal experiments were approved by the Institutional Animal Care and Uses Committee (IACUC) at the University of Iowa. The rat pups were sex-segregated as males and females based on visual examination and later confirmed by the presence of a Y chromosome-specific gene Sry by PCR. The gene for beta-actin, Actb, was used as a control. The primer sequences used for PCR amplification were as described,[35] which yielded a 317-bp product for Sry and a 220-bp product for Actb. Both products were confirmed by gel electrophoresis on a 1% agarose gel after PCR amplification was completed. As previously described, with modifications, astrocytes were obtained from the cortex of PND2/3 rats.[36] Briefly, cortical sections were dissociated in minimal essential medium with Earle’s salts for suspension cultures (S-MEM; Life Technologies) with 1% penicillin/streptomycin and 1.5 U/mL dispase (Life Technologies) for 60 min, aliquoting and replacing dissociation media every 10 min, adding 8000 U/mL DNase I in water after the first digestion. The enzymatic digestion was stopped by adding a growth medium containing minimal essential medium with Earle’s salts (MEM; Life Technologies) with 1% P/S and 10% heat-inactivated horse serum. After digestion, cells were centrifuged for 10 min at 1000 × g at 4 °C, and the pellet was resuspended in a growth medium. Cells were assessed for count and viability and then plated at 10,000 viable cells/cm^2 in T75 flasks. Flasks were shaken after 24 h, and media was replaced to begin removing microglia and then repeated every 2–3 days. Flow cytometry utilizing GFAP and IBA1 antibodies was run at passage 2 to confirm the elimination of microglia from the primary astrocyte cultures. The rat primary astrocyte cultures were maintained in MEM with 1% P/S and 10% heat-inactivated horse serum at 37 °C under humidified conditions at 5% CO2. The detailed protocol for astrocyte isolation of sex segregated rat pups and further validation of purity of astrocyte cultures is published and can be accessed at: dx.doi.org/10.17504/protocols.io.e6nvwjry7lmk/v1.
# as §1, §2
# [2] = MTT cell viability assay in mouse primary glial cells; assay type: cell-based, C57BL/6 mouse; details: mouse, primary mixed glial cells, MTT, primary glial cells from C57BL/6 mice
# Experimental: as §3, §1, §2
# [3] = read-out: hydroxylated metabolite IC50
# [4] = Astrocyte, sex segregated rat primary astrocytes, female, read-out: IC50 females
# [5] = Astrocyte, sex segregated rat primary astrocytes, male, read-out: IC50 males
# [6] = read-out: sulfated metabolite IC50
compound,measurement,setting,value
Oc1ccc(-c2ccc(Cl)cc2Cl)cc1Cl [PCB 25 hydroxylated metabolite],IC50,C6 cells; [3],5.3 µM
"Clc1ccc(Cl)c(-c2cc(Cl)ccc2Cl)c1 [PCB52, 2,2′,5,5′-tetrachlorobiphenyl]",IC50,[1],9.8 µM
same,IC50,C6 cells; read-out: parent compound IC50,8.8 µM
same,IC50,rat primary astrocytes; [4],14.4 µM
same,IC50,rat primary astrocytes; [5],15.3 µM
same,IC50,"rat primary astrocytes; mixed rat primary astrocyte cultures (>95% astrocytes), read-out: IC50",11.8 µM
"Clc1cccc(-c2ccc(Cl)cc2Cl)c1 [PCB25, 2,3′,4-trichlorobiphenyl]",IC50,C6 cells; read-out: parent compound IC50,10 µM
Oc1cc(Cl)c(-c2cc(Cl)ccc2Cl)cc1Cl [4-OH-PCB52],"viability at 24 h, 1 µM",[2]; 1 μM,150%
same,"viability at 24 h, 5 µM",[2],~0%
same,IC50,C6 cells; [3],2.2 µM
same,IC50,rat primary astrocytes; [4],4.4 µM
same,IC50,rat primary astrocytes; [5],4.9 µM
"Clc1cccc(-c2cccc(Cl)c2)c1 [PCB11, 3,3′-dichlorobiphenyl]",toxicity (cell viability) in the tested concentration range,C6 cells,non-toxic
same,IC50,C6 cells; read-out: parent compound IC50,> 50 µM
O=S(=O)(O)Oc1ccc(-c2ccc(Cl)cc2Cl)cc1Cl [PCB 25 sulfated metabolite],IC50,C6 cells; [6],> 50 µM
Oc1ccc(-c2cccc(Cl)c2)cc1Cl [PCB 11 hydroxylated metabolite],IC50,C6 cells; [3],13 µM
"Clc1ccc(-c2ccccc2)cc1 [PCB3, 4-chlorobiphenyl]",toxicity (cell viability) in the tested concentration range,C6 cells,non-toxic
same,IC50,C6 cells; read-out: parent compound IC50,> 50 µM
Oc1ccc(-c2ccc(Cl)cc2)cc1 [PCB 3 hydroxylated metabolite],IC50,C6 cells; [3],21.4 µM
O=S(=O)(O)Oc1cc(Cl)c(-c2cc(Cl)ccc2Cl)cc1Cl [4-OH-PCB52 sulfate],"viability at 24 h, 5 µM",[2],> 150%
same,"viability at 24 h, 10 μM",[2]; next higher concentration after 5 μM,20%
same,toxicity (cell viability) in the tested concentration range,C6 cells,reduced cell viability
same,IC50,C6 cells; [6],8.4 µM
same,IC50,rat primary astrocytes; [4],6.9 µM
same,IC50,rat primary astrocytes; [5],7 µM
"Clc1ccc(-c2ccc(Cl)cc2Cl)cc1 [PCB28, 2,4,4′-trichlorobiphenyl]",IC50,C6 cells; read-out: parent compound IC50,~25 µM
O=S(=O)(O)Oc1ccc(-c2cccc(Cl)c2)cc1Cl [PCB 11 sulfated metabolite],IC50,C6 cells; [6],> 50 µM
O=S(=O)(O)Oc1ccc(-c2ccc(Cl)cc2)cc1 [PCB 3 sulfated metabolite],IC50,C6 cells; [6],> 50 µM
